# Measurements as given in patent US20090048157A1, “USE OF ORGANIC COMPOUNDS” (priority 2004, published 2009).
# Tests used:
# Type in all cases: in vivo, human
# [1] = system: Serum CTX-I (bone resorption marker); experiment: Serum CTX-I (CrossLaps) after single doses of oral or iv salmon calcitonin in male volunteers; settings: eight male volunteers, oral and iv SCT
# Text: Serum CTX-I, or CrossLaps® (Nordic Bioscience Diagnostics A/S, cat. no. 4CRL4000) is an enzyme-immunoassay for quantitative assessment of bone resorption, and has been cleared by the FDA. It is based on two highly specific monoclonal antibodies against the amino acid sequence of EKAHD-β-GGR originating from the C-telopeptide of type I collagen. The aspartic acid residue (D) is β-isomerized. Standards, control, or unknown serum samples are pipetted into the appropriate microtitre wells coated with streptavidin, followed by application of a mixture of a biotinylated antibody and a peroxidase-conjugated antibody. Then, a complex between the CTX antigens, biotinylated antibody and peroxidase-conjugated antibody is generated, and this complex binds to the streptavidin surface via the biotinylated antibody. Following the one-step incubation at room temperature, the wells are emptied and washed. A chromogenic substrate is added and the colour reaction is stopped with sulfuric acid. Finally, the absorbance is measured.
# The effect of oral salmon calcitonin (SCT) on the serum levels of CTX-I is investigated by randomising study participants (eight male volunteers) to receive three. single doses of SCT, a verum intravenous infusion of SCT or placebo in a five-period cross-over design (the study is described in detail in Buchlin et al., J Bone Miner Res., (2002); 17:1478-1485).
# [2] = system: Serum CTX-I (bone resorption marker); experiment: Serum CTX-I response to oral SCT in postmenopausal women, clinical trial; settings: after the first dose, 0.15, 0.4, 1.0 or 2.5 mg, dose-dependent, compared with placebo
# Text: Serum CTX-I, or CrossLaps® (Nordic Bioscience Diagnostics A/S, cat. no. 4CRL4000) is an enzyme-immunoassay for quantitative assessment of bone resorption, and has been cleared by the FDA. It is based on two highly specific monoclonal antibodies against the amino acid sequence of EKAHD-β-GGR originating from the C-telopeptide of type I collagen. The aspartic acid residue (D) is β-isomerized. Standards, control, or unknown serum samples are pipetted into the appropriate microtitre wells coated with streptavidin, followed by application of a mixture of a biotinylated antibody and a peroxidase-conjugated antibody. […] Finally, the absorbance is measured.
# (§1) The response of serum CTX-I and N-MID® Osteocalcin to SCT in postmenopausal women is examined in a multi-center, randomised, double-blind, placebo-controlled, dose-ranking clinical trial including 277 study participants aged 55-85 years (the study has been described in detail in Tank{acute over (0)} et al., J Bone Miner Res., in print). The study participants receives active treatment (daily doses of 0.15, 0.4, 1.0, or 2.5 mg or 1.0 mg every other day) or placebo for three months and serum CTX-I as well as N-MID® Osteocalcin are measured frequently during a 24-hours period before drug administration and after one and three months.
# [3] = system: N-MID Osteocalcin (bone formation marker); experiment: N-MID Osteocalcin ELISA response to oral SCT in postmenopausal women, clinical trial; settings: 0.15-2.5 mg daily or 1.0 mg every other day, compared with placebo
# Text: The N-MID® Osteocalcin ELISA (Nordic Bioscience Diagnostics A/S, cat. no. 3OSC4000) is an enzyme innuosorbent assay for quantitative assessment of bone formation, and has been cleared by the FDA. It is based upon the application of two highly specific monoclonal antibodies (Mabs) against human osteocalcin. An antibody recognizing the midregion (amino acids 20-29) is used as the capture antibody and for detection a peroxidase conjugated antibody recognizing the N-terminal region (amino acids 10-16) is used. In addition to intact osteocalcin (amino acid 1-49) the N-terminal-Mid fragment (amino acids 1-43) is also detected. […] Finally, the absorbance is measured.
# as §1
substance,measurement,setting,value
salmon calcitonin [SCT],Time to nadir of serum CTX-I post-treatment,[1],2 to 4 h
same,Time to return of serum CTX-I to pre-treatment levels,[1],24 h
same,Serum CTX-I: inhibition of bone resorption,[1]; cross-over vs placebo,marked dose-dependent inhibition of bone resorption
same,Serum CTX-I decrease from baseline,[2],−60.8 to −81.8%
same,Changes of N-MID Osteocalcin,[3],non-significant
